Among the data in US11464770B2, “Anticancer pharmaceutical composition” (NATIONAL CANCER CENTER, priority 2016, dated 2022) are IC50 values, retold here.

Assay [1] deals with prostate cancer cell lines (e.g. DU145/TXR). In words: Cell based assay, cell viability (CellTiter-Glo), prostate cancer cell lines. The following applies: Homo sapiens, 72 hours treatment, final concentration 0 to 2 μM. On the procedure:
(§1) Commercially available bladder cancer, prostate cancer, lung cancer, breast cancer, blood cancer, pancreatic cancer, colorectal cancer, brain cancer, neuroblastoma, melanoma, liver cancer, cervical carcinoma, ovarian cancer, renal cancer, and papilloma cell lines were each treated with trypsin-EDTA and cultured, followed by being seeded in each well of a 96 well plate. After 24 hours of treatment at constant temperature, the respective cells were treated with the candidate compound so that a final concentration became 0 to 2 μM. The treated cells were additionally cultured for 72 hours, and cell viability was measured by using an ATP detection method (CellTiter-Glo® Luminescent Cell Viability Assay, Promega).

The test system of assay [2] is ovarian cancer cell lines. In words: Cell based assay, cell viability (CellTiter-Glo), ovarian cancer cell lines. The following applies: Homo sapiens; OVCAR-3 cells. On the procedure: as §1
For orientation: In ATP-based viability assays light output follows the ATP content of the culture.

Where [3] appears, read: CWR22 cells, read-out: IC50, prostate cancer cell line CWR22.
Where [4] appears, read: DU-145, DU145/TXR cells, read-out: IC50, prostate cancer cell line DU145/TXR.
Where [5] appears, read: DU-145, DU145 cells, read-out: IC50, prostate cancer cell line DU145.
[6] abbreviates: LNcap cells, read-out: IC50, prostate cancer cell line LNcap.
Setting [7] is: PC-3 cells, read-out: IC50, prostate cancer cell line PC-3.

Read-outs that look alike come from different tables or passages of the source. Bounds are passed on as bounds.

As for `CC(=O)c1c(SCc2cc(Cl)ccc2Cl)[nH]c2c(Br)ccc(Cl)c2c1=O` [Compound 43, 3-acetyl-8-bromo-5-chloro-2-((2,5-dichlorobenzyl)thio)quinolin-4(1H)-one], the IC50 in assay [1] (setting [3]), in assay [1] (setting [4]), in assay [1] (setting [5]), in assay [1] (setting [6]), in assay [1] (setting [7]) and in assay [2] was more than 2 µM in each case.
Take `CC(=O)c1c([S+](C)[O-])n(S(=O)(=O)C(F)(F)F)c2c(Br)ccc(Cl)c2c1=O` (stereo not drawn) [Compound 36, 3-acetyl-8-bromo-5-chloro-2-(methylsulfinyl)-1-((trifluoromethyl)sulfonyl)quinolin-4(1H)-one]: the IC50 in assay [1] (setting [3]), in assay [1] (setting [4]), in assay [1] (setting [5]), in assay [1] (setting [6]), in assay [1] (setting [7]) and in assay [2] was more than 2 µM throughout.
With `CC(=O)c1c([S+]([O-])Cc2ccc(C#N)s2)[nH]c2c(Br)ccc(Cl)c2c1=O` (stereo not drawn) [Compound 98, 5-(((3-acetyl-8-bromo-5-chloro-4-oxo-1,4-dihydroquinolin-2-yl)sulfinyl)methyl)thiophene-2-carbonitrile], the IC50 is 1.55 µM in assay [1] (setting [3]); 1.91 µM in assay [1] (setting [4]); 1.92 µM in assay [1] (setting [5]); more than 2 µM in assay [1] (setting [6]); more than 2 µM in assay [1] (setting [7]); 1.23 µM in assay [2].
With `CC(=O)c1c([S+]([O-])CN2C(=O)c3ccccc3C2=O)[nH]c2c(Cl)ccc(Cl)c2c1=O` (stereo not drawn) [Compound 90, 2-(((3-acetyl-5,8-dichloro-4-oxo-1,4-dihydroquinolin-2-yl)sulfinyl)methyl)isoindoline-1,3-dione], the IC50 in assay [1] (setting [3]), in assay [1] (setting [4]), in assay [1] (setting [5]), in assay [1] (setting [6]), in assay [1] (setting [7]) and in assay [2] was more than 2 µM each time.
For `CC(=O)c1c([S+]([O-])Cc2ccc(C(F)(F)F)nc2C)[nH]c2c(Br)ccc(Cl)c2c1=O` (stereo not drawn) [Compound 102, 3-acetyl-8-bromo-5-chloro-2-(((2-methyl-6-(trifluoromethyl)pyridin-3-yl)methyl)sulfinyl)quinolin-4(1H)-one], the IC50 in assay [1] (setting [3]) was 1.49 µM; in assay [1] (setting [4]) it was 1.12 µM; in assay [1] (setting [5]), 1.65 µM; in assay [1] (setting [6]) it was more than 2 µM; in assay [1] (setting [7]) it was 1.83 µM; in assay [2] it was 0.93 µM.
With `CC(=O)c1c([S+]([O-])Cc2ccc(Cl)nc2)[nH]c2c(Br)ccc(Cl)c2c1=O` (stereo not drawn) [Compound 104, 3-acetyl-8-bromo-5-chloro-2-(((6-chloropyridin-3-yl)methyl)sulfinyl)quinolin-4(1H)-one], the IC50 in assay [1] (setting [3]) is 1.55 µM; in assay [1] (setting [4]), 1.23 µM; in assay [1] (setting [5]), 1.64 µM; in assay [1] (setting [6]) it was more than 2 µM; in assay [1] (setting [7]) it was more than 2 µM; in assay [2], 0.84 µM.
`O=C(c1c([S+]([O-])Cc2ccc(SC(F)(F)F)cc2)[nH]c2c(Br)ccc(Cl)c2c1=O)C1CC1` (stereo not drawn) [Compound 101, 8-bromo-5-chloro-3-(cyclopropanecarbonyl)-2-((4-((trifluoromethyl)thio)benzyl)sulfinyl)quinolin-4(1H)-one]: the IC50 is more than 2 µM in assay [1] (setting [3]); 1.42 µM in assay [1] (setting [4]); 1.34 µM in assay [1] (setting [5]); more than 2 µM in assay [1] (setting [6]); more than 2 µM in assay [1] (setting [7]); 1.99 µM in assay [2].
On to `CC(=O)c1c(SCc2cccc(C#N)c2)[nH]c2c(Br)ccc(Cl)c2c1=O` [Compound 27, 3-(((3-acetyl-8-bromo-5-chloro-4-oxo-1,4-dihydroquinolin-2-yl)thio)methyl)benzonitrile], for which the IC50 in assay [1] (setting [3]), in assay [1] (setting [4]), in assay [1] (setting [5]), in assay [1] (setting [6]), in assay [1] (setting [7]) and in assay [2] was more than 2 µM in each case.
As for `CC(=O)c1c([S+](C)[O-])n(S(=O)(=O)c2ccc(C(C)(C)C)cc2)c2c(Br)ccc(Cl)c2c1=O` (stereo not drawn) [Compound 42, 3-acetyl-8-bromo-1-((4-(tert-butyl)phenyl)sulfonyl)-5-chloro-2-(methylsulfinyl)quinolin-4(1H)-one], the IC50 in assay [1] (setting [3]), in assay [1] (setting [4]), in assay [1] (setting [5]), in assay [1] (setting [6]), in assay [1] (setting [7]) and in assay [2] was more than 2 µM throughout.
As for `CC(=O)c1c([S+]([O-])C(C)C)[nH]c2c(Br)ccc(Cl)c2c1=O` (stereo not drawn) [Compound 25, 3-acetyl-8-bromo-5-chloro-2-(isopropylsulfinyl)quinolin-4(1H)-one], the IC50 in assay [1] (setting [3]), in assay [1] (setting [4]), in assay [1] (setting [5]), in assay [1] (setting [6]), in assay [1] (setting [7]) and in assay [2] was more than 2 µM in each case.
In the case of `CC(=O)c1c([S+](C)[O-])[nH]c2c(Br)ccc(Cl)c2c1=O` (stereo not drawn) [Compound 1, 3-acetyl-8-bromo-5-chloro-2-(methylsulfinyl)quinolin-4(1H)-one], the IC50 is 1.83 µM in assay [1] (setting [3]); 1.65 µM in assay [1] (setting [4]); 1.9 µM in assay [1] (setting [5]); more than 2 µM in assay [1] (setting [6]); 1.64 µM in assay [1] (setting [7]); 0.7 µM in assay [2].
`CSc1c(C(C)=O)c(=O)c2c(Cl)ccc(Br)c2n1C` [Compound 5, 3-acetyl-8-bromo-5-chloro-1-methyl-2-(methylthio)quinolin-4(1H)-one]: the IC50 in assay [1] (setting [3]), in assay [1] (setting [4]), in assay [1] (setting [5]), in assay [1] (setting [6]), in assay [1] (setting [7]) and in assay [2] was more than 2 µM throughout.
In the case of `CC(=O)c1c([S+](C)[O-])n(C(C)=O)c2c(Br)ccc(Cl)c2c1=O` (stereo not drawn) [Compound 19, 1,1′-(8-bromo-5-chloro-2-(methylsulfinyl)-4-oxoquinoline-1,3(4H)-diyl)bis(ethan-1-one)], the IC50 in assay [1] (setting [3]), in assay [1] (setting [4]), in assay [1] (setting [5]), in assay [1] (setting [6]), in assay [1] (setting [7]) and in assay [2] was more than 2 µM throughout.
Take `CSc1c(C(C)=O)c(=O)c2c(Cl)ccc(Br)c2n1C(C)=O` [Compound 18, 1,1′-(8-bromo-5-chloro-2-(methylthio)-4-oxoquinoline-1,3(4H)-diyl)bis(ethan-1-one)]: the IC50 in assay [1] (setting [3]), in assay [1] (setting [4]), in assay [1] (setting [5]), in assay [1] (setting [6]), in assay [1] (setting [7]) and in assay [2] was more than 2 µM throughout.
Turning to `CCS(=O)(=O)n1c([S+](C)[O-])c(C(C)=O)c(=O)c2c(Cl)ccc(Br)c21` (stereo not drawn) [Compound 39, 3-acetyl-8-bromo-5-chloro-1-(ethylsulfonyl)-2-(methylsulfinyl)quinolin-4(1H)-one], the IC50 in assay [1] (setting [3]), in assay [1] (setting [4]), in assay [1] (setting [5]), in assay [1] (setting [6]), in assay [1] (setting [7]) and in assay [2] was more than 2 µM in each case.
In the case of `CC(=O)c1c(SCc2ccc(Cl)cc2)[nH]c2c(Br)ccc(Cl)c2c1=O` [Compound 10, 3-acetyl-8-bromo-5-chloro-2-((4-chlorobenzyl)thio)quinolin-4(1H)-one], the IC50 in assay [1] (setting [3]), in assay [1] (setting [4]), in assay [1] (setting [5]), in assay [1] (setting [6]), in assay [1] (setting [7]) and in assay [2] was more than 2 µM throughout.
Take `CC(=O)c1c([S+]([O-])Cc2ccc(S(F)(F)(F)(F)F)cc2)[nH]c2c(F)ccc(F)c2c1=O` (stereo not drawn) [Compound 80, 3-acetyl-5,8-difluoro-2-((4-(pentafluoro--sulfanyl)benzyl)sulfinyl)quinolin-4(1H)-one]: the IC50 in assay [1] (setting [3]), in assay [1] (setting [4]), in assay [1] (setting [5]), in assay [1] (setting [6]) and in assay [2] was more than 2 µM throughout.
Regarding `CC(=O)c1c([S+]([O-])Cc2cnc3[nH]ccc3c2)[nH]c2c(Br)ccc(Cl)c2c1=O` (stereo not drawn) [Compound 107, 2-(((1H-pyrrolo[2,3-b]pyridin-5-yl)methyl)sulfinyl)-3-acetyl-8-bromo-5-chloroquinolin-4(1H)-one], the IC50 in assay [1] (setting [3]), in assay [1] (setting [4]), in assay [1] (setting [5]), in assay [1] (setting [6]) and in assay [2] was more than 2 µM each time.
Regarding `COC(=O)c1ccc(C[S+]([O-])c2[nH]c3c(Cl)ccc(Cl)c3c(=O)c2C(C)=O)cc1` (stereo not drawn) [Compound 91, methyl 4-(((3-acetyl-5,8-dichloro-4-oxo-1,4-dihydroquinolin-2-yl)sulfinyl)methyl)benzoate], the IC50 in assay [1] (setting [3]) was more than 2 µM; in assay [1] (setting [4]) it was 1.98 µM; in assay [1] (setting [5]), more than 2 µM; in assay [1] (setting [6]) it was more than 2 µM; in assay [2], 1.74 µM.
Take `CSc1c(C(C)=O)c(=O)c2c(Cl)ccc(Br)c2n1S(=O)(=O)c1ccc(Cl)cc1` [Compound 37, 3-acetyl-8-bromo-5-chloro-1-((4-chlorophenyl)sulfonyl)-2-(methylthio)quinolin-4(1H)-one]: the IC50 in assay [1] (setting [3]), in assay [1] (setting [4]), in assay [1] (setting [5]), in assay [1] (setting [6]), in assay [1] (setting [7]) and in assay [2] was more than 2 µM each time.
In the case of `CC(=O)c1c(SCc2ccc(F)c(Cl)c2)[nH]c2c(Br)ccc(Cl)c2c1=O` [Compound 30, 3-acetyl-8-bromo-5-chloro-2-((3-chloro-4-fluorobenzyl)thio)quinolin-4(1H)-one], the IC50 in assay [1] (setting [3]), in assay [1] (setting [4]), in assay [1] (setting [5]), in assay [1] (setting [6]), in assay [1] (setting [7]) and in assay [2] was more than 2 µM in each case.
For `CC(=O)c1c([S+](C)[O-])n(C(=O)c2ccc(Br)cc2)c2c(Br)ccc(Cl)c2c1=O` (stereo not drawn) [Compound 9, 3-acetyl-8-bromo-1-(4-bromobenzoyl)-5-chloro-2-(methylsulfinyl)quinolin-4(1H)-one], the IC50 was 1.6 µM in assay [1] (setting [3]); 1.35 µM in assay [1] (setting [4]); 1.59 µM in assay [1] (setting [5]); more than 2 µM in assay [1] (setting [6]); 1.47 µM in assay [1] (setting [7]); 0.58 µM in assay [2].
